Reference: patent US8158794B2, “Hydroxyalkyl substituted imidazoquinoline compounds and methods” (3M Innovative Properties Company, priority 2005, dated 2012)
Structures can show the parent of a compound that is named as a salt.

Test system: interferon (α) (IFN-α)
Experiment: Cytokine induction in human cells: IFN-α secreted by PBMC (ELISA)
Type: cell-based
Conditions: 18 to 24 hours, lowest tested concentration inducing response over 20 pg/mL, median if more than one experiment, read-out: Minimum Effective Concentration (μM) IFN
Description: (§1) An in vitro human blood cell system is used to assess cytokine induction. Activity is based on the measurement of interferon (α) and tumor necrosis factor (α) (IFN-α and TNF-α, respectively) secreted into culture media as described by Testerman et. al. in “Cytokine Induction by the Immunomodulators Imiquimod and S-27609”, Journal of Leukocyte Biology, 58, 365-372 (September, 1995).
(§2) Whole blood from healthy human donors is collected by venipuncture into vacutainer tubes or syringes containing EDTA. Peripheral blood mononuclear cells (PBMC) are separated from whole blood by density gradient centrifugation using HISTOPAQUE-1077 (Sigma, St. Louis, Mo.) or Ficoll-Paque Plus (Amersham Biosciences Piscataway, N.J.). Blood is diluted 1:1 with Dulbecco's Phosphate Buffered Saline (DPBS) or Hank's Balanced Salts Solution (HBSS). Alternately, whole blood is placed in Accuspin (Sigma) or LeucoSep (Greiner Bio-One, Inc., Longwood, Fla.) centrifuge frit tubes containing density gradient medium. The PBMC layer is collected and washed twice with DPBS or HBSS and re-suspended at 4×10^6 cells/mL in RPMI complete. The PBMC suspension is added to 96 well flat bottom sterile tissue culture plates containing an equal volume of RPMI complete media containing test compound.
(§3) The compounds are solubilized in dimethyl sulfoxide (DMSO). The DMSO concentration should not exceed a final concentration of 1% for addition to the culture wells. The compounds are generally tested at concentrations ranging from 30-0.014 μM. Controls include cell samples with media only, cell samples with DMSO only (no compound), and cell samples with reference compound.
(§4) The solution of test compound is added at 60 μM to the first well containing RPMI complete and serial 3 fold dilutions are made in the wells. The PBMC suspension is then added to the wells in an equal volume, bringing the test compound concentrations to the desired range (usually 30-0.014 μM). The final concentration of PBMC suspension is 2×10^6 cells/mL. The plates are covered with sterile plastic lids, mixed gently and then incubated for 18 to 24 hours at 37° C. in a 5% carbon dioxide atmosphere.
(§5) Following incubation the plates are centrifuged for 10 minutes at 1000 rpm (approximately 200×g) at 4° C. The cell-free culture supernatant is removed and transferred to sterile polypropylene tubes. Samples are maintained at −30 to −70° C. until analysis. The samples are analyzed for IFN-α by ELISA and for TNF-α by IGEN/BioVeris Assay.
IFN-α concentration is determined with a human multi-subtype colorimetric sandwich ELISA (Catalog Number 41105) from PBL Biomedical Laboratories, Piscataway, N.J. Results are expressed in pg/mL.
(§6) In total, the data output of the assay consists of concentration values of TNF-α and IFN-α(y-axis) as a function of compound concentration (x-axis).
Analysis of the data has two steps. First, the greater of the mean DMSO (DMSO control wells) or the experimental background (usually 20 pg/mL for IFN-α and 40 pg/mL for TNF-α) is subtracted from each reading. If any negative values result from background subtraction, the reading is reported as “*”, and is noted as not reliably detectable. In subsequent calculations and statistics, “*”, is treated as a zero. Second, all background subtracted values are multiplied by a single adjustment ratio to decrease experiment to experiment variability. The adjustment ratio is the area of the reference compound in the new experiment divided by the expected area of the reference compound based on the past 61 experiments (unadjusted readings). […] The reference compound used is 2-[4-amino-2-ethoxymethyl-6,7,8,9-tetrahydro-α,α-dimethyl-1H-imidazo[4,5-c]quinolin-1-yl]ethanol hydrate (U.S. Pat. No. 5,352,784; Example 91) and the expected area is the sum of the median dose values from the past 61 experiments.
The minimum effective concentration is calculated based on the background-subtracted, reference-adjusted results for a given experiment and compound. […]

| Compound | minimal effective concentration [µM] |
| --- | --- |
| Nc1nc2cc(-c3cccnc3)ccc2c2c1nc(CO)n2CCCCNC(=O)C1CCCC1 [Example 42] | 0.12 |

Test system: tumor necrosis factor (α) (TNF-α)
Experiment: Cytokine induction in human cells: TNF-α secreted by PBMC (ORIGEN M-Series immunoassay)
Type: cell-based
Conditions: 18 to 24 hours, lowest tested concentration inducing response over 40 pg/mL, median if more than one experiment, read-out: Minimum Effective Concentration (μM) TNF
Description: as §1, §2, §3, §4, §5
The TNF-α concentration is determined by ORIGEN M-Series Immunoassay and read on an IGEN M-8 analyzer from BioVeris Corporation, formerly known as IGEN International, Gaithersburg, Md. The immunoassay uses a human TNF-α capture and detection antibody pair (Catalog Numbers AHC3419 and AHC3712) from Biosource International, Camarillo, Calif. Results are expressed in pg/mL.
as §6
Analysis of the data has two steps. First, the greater of the mean DMSO (DMSO control wells) or the experimental background (usually 20 pg/mL for IFN-α and 40 pg/mL for TNF-α) is subtracted from each reading. If any negative values result from background subtraction, the reading is reported as “*”, and is noted as not reliably detectable. In subsequent calculations and statistics, “*”, is treated as a zero. Second, all background subtracted values are multiplied by a single adjustment ratio to decrease experiment to experiment variability. The adjustment ratio is the area of the reference compound in the new experiment divided by the expected area of the reference compound based on the past 61 experiments (unadjusted readings). […]

| Compound | minimal effective concentration [µM] |
| --- | --- |
| Nc1nc2cc(-c3cccnc3)ccc2c2c1nc(CO)n2CCCCNC(=O)C1CCCC1 [Example 42] | 3.33 |

Test system: not given
Experiment: not given
Conditions: not given

| Compound | melting point [°C] |
| --- | --- |
| CC(C)(O)Cn1c(CO)nc2c(N)nc3cc(-c4cccnc4)ccc3c21 (hydrate or solvate) [Example 51] | 141 to 143 |
| Nc1nc2cc(-c3cccnc3)ccc2c2c1nc(CO)n2CC1CCOCC1 [Example 32, [4-Amino-7-pyridin-3-yl-1-(tetrahydro-2H-pyran-4-ylmethyl)-1H-imidazo[4,5-c]quinolin-2-yl]methanol] | 260 to 262 |
| CC(C)(O)Cn1c(CO)nc2c(N)nc3cc(-c4cncc(CO)c4)ccc3c21 (hydrate or solvate) [Example 33] | 180 to 182 |
| CC(C)(O)Cn1c(CO)nc2c(N)nc3cc(-c4ccc(F)nc4)ccc3c21 (hydrate or solvate) [Example 37] | 111 to 114 |
| CC(C)C(=O)N1CCC(Cn2c(CO)nc3c(N)nc4cc(-c5cccnc5)ccc4c32)CC1 (hydrate or solvate) [Example 35] | 154 to 157 |
| Nc1nc2cc(-c3cncc(CO)c3)ccc2c2c1nc(CO)n2CC1CCCCC1 (hydrate or solvate) [Example 49] | 166 to 170 |
| Nc1nc2cc(-c3ccccc3O)ccc2c2c1nc(CCO)n2CCCN1CCCC1=O (hydrate or solvate) [Example 48] | > 250 |
| Nc1nc2cc(-c3cccc(C(=O)N4CCOCC4)c3)ccc2c2c1nc(CO)n2CC1CCCCC1 (as salt: HCl) (hydrate or solvate) [Example 50] | 260 to 264 |

The next lines start with the values.

| melting point [°C] | Compound |
| --- | --- |
| 241 to 242 | Nc1nc2cc(-c3cccnc3)ccc2c2c1nc(CO)n2CCCCNC(=O)C1CCCC1 [Example 42] |
| 225 to 227 | Nc1nc2cc(-c3cccnc3)ccc2c2c1nc(CO)n2CCCCNC(=O)NC1CCCC1 (hydrate or solvate) [Example 41] |
| 211 to 212 | CCCC(=O)NCCCCn1c(CO)nc2c(N)nc3cc(-c4cccnc4)ccc3c21 (hydrate or solvate) [Example 40] |
| 206 to 209 | CCCNC(=O)NCCCCn1c(CO)nc2c(N)nc3cc(-c4cccnc4)ccc3c21 (hydrate or solvate) [Example 39] |
| 188 to 190 | CS(=O)(=O)NCCCCn1c(CO)nc2c(N)nc3cc(-c4cccnc4)ccc3c21 (hydrate or solvate) [Example 38] |
| 225 to 227 | CC(C)C(=O)NCCCCn1c(CO)nc2c(N)nc3cc(-c4cccnc4)ccc3c21 (hydrate or solvate) [Example 43] |
